Values joined by “and” are separate entries in the source; they are usually repeats but may differ in a detail not shown here. Equal values may be shown once. Where a name gives a salt, the structure may show the parent alone. Read-outs that look alike come from different tables or passages of the source.
Test: Pharmacokinetic test in rats, gavage administration
Type: in vivo, SD rats
Method: The preferred compound of the present disclosure was assessed in rats for its pharmacokinetic profile.
SD rats, male and female, weighing 150 to 250 g
Mobile phase: 10 mM ammonium formate aqueous solution:methanol=15:85
The ionization source was electrospray ionization source. The detection mode was positive mode. Multiple reaction monitoring (MRM) was used as the scanning mode. The ion reaction for the quantitative analysis was the following: m/z was 305.2\150.0 for XX, and 256.1\167.1 for diphenhydramine (the internal standard).
XX or YY was orally administered with single dose of 20 mg/kg to six SD rats, one half of which were male and the other half was female. XX or YY was dissolved in 10% hydroxypropyl-β-cyclodextrin. […]
After the blood collection, the tubes were immediately gently turned upside down at least five times to ensure sufficient mixing, and placed on ice. Heparin was added for anticoagulation. The samples were centrifuged at 8000 rpm for 5 min to separate serum from erythrocyte. The serum was transferred with a pipettor to 2 mL polypropylene (PP) tubes, which were marked with the name of the compound and the time points, and stored in a refrigerator at −40° C. before LC-MS analysis. Samples with high concentrations were diluted with rat blank plasma.
2.5 μL of Meth-H2O and 5 μL of the internal standard solution (20 ng/mL, IS) were added to 50 μL of the plasma. Subsequently, 150 μL of methanol was added to the mixture to precipitate protein and the samples were then centrifuged at 13000 rpm for 5 min. The upper organic phase was taken out, filtrated with a 0.22 μM microporous membrane, and 2 μL of the sample was injected for the LC-MS analysis.

[1] = both sexes, Sprague-Dawley, rat, plasma, oral, 20 mg/kg, 20 mg/kg oral, individual rats 1-6, read-out: Concentrations in Plasma of Rats after Oral Administration
[2] = both sexes, Sprague-Dawley, rat, plasma, oral, 20 mg/kg, 20 mg/kg oral, mean of 6 rats, read-out: Concentrations in Plasma of Rats after Oral Administration, Mean ± SD
[3] = rats, oral 20 mg/kg, individual rats 1-6, 20 mg/kg

concentration at 1 h (both sexes, Sprague-Dawley, rat, plasma, oral, 20 mg/kg, 20 mg/kg oral, 1 h, mean of 6 rats, read-out: Concentrations in Plasma of Rats after Oral Administration, Mean ± SD): 95.8 ± 32.9 ng/mL
concentration at 1.5 h [1]: 73.4 ng/mL
concentration at 1.5 h [2]: 103 ± 26.9 ng/mL
concentration at 2 h [1]: 78.6 ng/mL
concentration at 2 h [2]: 98.2 ± 19.5 ng/mL
concentration at 3 h [1]: 58 ng/mL
concentration at 3 h [2]: 68.7 ± 12 ng/mL
concentration at 4 h [1]: 63.4 ng/mL
concentration at 4 h [2]: 65.1 ± 10.4 ng/mL
concentration at 6 h [1]: 46.1 ng/mL
concentration at 6 h [2]: 44.1 ± 7.27 ng/mL
concentration at 8 h [1]: 22.1 ng/mL
concentration at 8 h [2]: 23.5 ± 4.49 ng/mL
concentration at 10 h [1]: 16.7 ng/mL
concentration at 10 h [2]: 16.5 ± 2.41 ng/mL
concentration at 12 h [1]: 8.86 ng/mL
concentration at 12 h [2]: 8.24 ± 1.69 ng/mL
concentration at 14 h (both sexes, Sprague-Dawley, rat, plasma, oral, 20 mg/kg, 20 mg/kg oral, 14 h, mean of 6 rats, read-out: Concentrations in Plasma of Rats after Oral Administration, Mean ± SD): 4.27 ± 1.58 ng/mL
concentration at 24 h (both sexes, Sprague-Dawley, rat, plasma, oral, 20 mg/kg, 20 mg/kg oral, 24 h, mean of 6 rats, read-out: Concentrations in Plasma of Rats after Oral Administration, Mean ± SD): 0.75 ± 0.51 ng/mL
bioavailability (both sexes, Sprague-Dawley, rat, plasma, oral, 20 mg/kg, rats, oral 20 mg/kg vs iv 2 mg/kg, n = 6, read-out: F % (absolute bioavailability), Mean ± SD): 12.2 ± 1.72%
AUC(0-t) (both sexes, Sprague-Dawley, rat, plasma, po, 20 mg/kg, gavage administration of 20 mg/kg, rats, read-out: AUC0-t in the rats' plasma): 583 ± 82.7 ng·h/mL
AUC0-t increased comparing with that of its non-deuterium counterpart (rats, gavage 20 mg/kg, relative to Vortioxetine): 19%
Compound: [2H]C([2H])([2H])c1ccc(Sc2ccccc2N2CCNCC2)c(C([2H])([2H])[2H])c1 [XX, 1-{2-[2,4-bis(trideuteriomethyl)phenylsulfanyl]phenyl}piperazine hydrobromic acid salt]
F % (rats, oral 20 mg/kg vs iv 2 mg/kg, individual rats 1-6): 11.5% and 10.1% and 13.8% and 14.6% and 11.9%
AUC0-t (area under the plasma concentration-time curve from zero to the last sampling time) [3]: 552.3 ng·h/mL and 487.5 ng·h/mL and 659.3 ng·h/mL and 703.9 ng·h/mL and 569.8 ng·h/mL
AUC0-∞ [3]: 552.5 ng·h/mL and 488.9 ng·h/mL and 666.0 ng·h/mL and 705.3 ng·h/mL and 571.4 ng·h/mL
Cmax [3]: 91.6 ng/mL and 77.8 ng/mL and 120.8 ng/mL and 144 ng/mL and 115.8 ng/mL
MRT0-∞ [3]: 4.92 h and 5.44 h and 5.08 h and 4.24 h and 4.28 h
t1/2 [3]: 4.0 h and 1.7 h and 2.8 h and 3.5 h and 2.6 h and 2.9 h

From patent US9896423B2, “Deuterium substituted 1-[2-(2,4-dimethyl-phenylsulfanyl)-phenyl]piperazine compound or derivatives thereof, and pharmaceutical composition and use thereof” (Jiangsu Jibeier Pharmaceutical Co. Ltd., priority 2014, dated 2018)
